Measurements: patent publication US10633350B2, “Diphenyl derivatives and uses thereof” (NOVARTIS AG, priority 2017, dated 2020)
Where two headings read alike, the source gives them in different places.

How the values were obtained:
FoxO3a = FoxO3a inhibition assay (GFP-FoxO3a nuclear to cytoplasmic translocation) in U2OS GFP-FoxO3a H212R reporter cells; format: cell-based; conditions: serum starved overnight, 30 minutes compound treatment, ratio of nuclear to cytosolic GFP intensity, AC50 = concentration that results in 50% activation or inhibition, read-out: FoxO AC50
Method: (§1) Phosphorylation of Akt on S473 and FoxO3a nuclear to cytoplasmic translocation were used as readouts of PI3K/Akt/mTOR pathway activation downstream of growth factor signaling.
(§2) Reporter cell line. U2OS GFP-FoxO3a H212R reporter cell line was established by transducing U2OS cells with the retroviral plasmid pLEGFP-C1 containing FoxO3a H212R transgene and selecting for G418 resistant clones.
(§3) Reporter assay. U2OS GFP-FoxO3a H212R cells were plated in 384-well plates at 4000 cells per well in 30 microliters of McCoy's 5A medium containing 10% FBS. On day 1 the cells were washed with serum free medium and serum starved overnight. On day 2 the cells were treated with different doses of the compounds for 30 minutes, fixed with 4% Paraformaldehyde for 1 hour and stained with Phospho-AKT (Ser473) antibody (Cell Signaling Technology, catalog #4060) overnight at 4° C. After nuclei staining with Hoechst 33342 (Life Technologies, catalog # H3570) the plates were imaged with InCell 2000 (GE Healthcare Bio-Sciences). FoxO3a inhibition activity is calculated as the ratio of nuclear to cytosolic GFP intensity in percent. Akt activation is measured as the total cellular intensity of Phospho-Akt antibody staining in percent. DMSO control is set as 0% activity.

Akt = Akt activation assay (Phospho-AKT (Ser473) antibody staining) in U2OS GFP-FoxO3a H212R reporter cells; format: cell-based; conditions: serum starved overnight, 30 minutes compound treatment, total cellular intensity of Phospho-Akt (Ser473) antibody staining, AC50 = concentration that results in 50% activation or inhibition
Method: as §1, §2, §3

| Structure (SMILES) | AC50 (FoxO3a) [nM] | AC50 (Akt; Homo sapiens, 0.5 h) [nM] | AC50 (Akt) [nM] | AC50 (FoxO3a; Homo sapiens, 0.5 h) [nM] |
| --- | --- | --- | --- | --- |
| Cc1cc(C(N)=O)nn1-c1ccc(Cc2ccc(C3CCN(C)C3)cc2)cc1 (single isomer, unassigned) [Example 5-1, 5-methyl-1-(4-(4-(1-methylpyrrolidin-3-yl)benzyl)phenyl)-1H-pyrazole-3-carboxamide] | 295 | 1320 | – | – |
| Cc1cc(C(N)=O)nn1-c1ccc(Cc2ccc(C3CCN(C)C3)cc2)cc1 (single isomer, unassigned) [Example 5-2, 5-methyl-1-(4-(4-(1-methylpyrrolidin-3-yl)benzyl)phenyl)-1H-pyrazole-3-carboxamide] | 792 | – | 2500 | – |
| Cc1nc(C(N)=O)nn1-c1ccc(C(C)(C)c2ccc(Cl)cc2)cc1 [Example 1, 1-(4-(2-(4-chlorophenyl)propan-2-yl)phenyl)-5-methyl-1H-1,2,4-triazole-3-carboxamide] | – | 1550 | – | 576 |
| Cc1cc(C(N)=O)nn1-c1ccc(Cc2ccc3c(c2)OCc2ccccc2-3)cc1 [Example 2, 1-(4-((6H-benzo[c]chromen-3-yl)methyl)phenyl)-5-methyl-1H-pyrazole-3-carboxamide] | – | 326 | – | 137 |
| Cc1cc(C(N)=O)nn1-c1ccc(Cc2ccc(-c3ccc(CN4CCCC4)cc3)cc2)cc1 [Example 3-1, 5-methyl-1-(4-((4′-(pyrrolidin-1-ylmethyl)-[1,1′-biphenyl]-4-yl)methyl)phenyl)-1H-pyrazole-3-carboxamide] | – | 135 | – | 36 |
| CCN(CC)Cc1ccc(-c2ccc(Cc3ccc(-n4nc(C(N)=O)cc4C)cc3)cc2)cc1 [Example 3-2, 1-(4-((4′-((diethylamino)methyl)-[1,1′-biphenyl]-4-yl)methyl)phenyl)-5-methyl-1H-pyrazole-3-carboxamide] | – | 341 | – | 236 |
| Cc1cc(C(N)=O)nn1-c1ccc(Cc2ccc(-c3ccc4c(c3)CCN(C)C4)cc2)cc1 [Example 3-3, 5-methyl-1-(4-(4-(2-methyl-1,2,3,4-tetrahydroisoquinolin-6-yl)benzyl)phenyl)-1H-pyrazole-3-carboxamide] | – | 109 | – | 40 |
| Cc1cc(C(N)=O)nn1-c1ccc(Cc2ccc(-c3ccc4c(c3)CNC4)cc2)cc1 [Example 3-4, 1-(4-(4-(isoindolin-5-yl)benzyl)phenyl)-5-methyl-1H-pyrazole-3-carboxamide] | – | 268 | – | 75 |
| Cc1cc(C(N)=O)nn1-c1ccc(Cc2ccc(-c3ccncc3)cc2)cc1 [Example 3-5, 5-methyl-1-(4-(4-(pyridin-4-yl)benzyl)phenyl)-1H-pyrazole-3-carboxamide] | – | 156 | – | 61 |
| Cc1cc(C(N)=O)nn1-c1ccc(Cc2ccc(-c3ccc(S(C)(=O)=O)cc3)cc2)cc1 [Example 3-6, 5-methyl-1-(4-((4′-(methylsulfonyl)-[1,1′-biphenyl]-4-yl)methyl)phenyl)-1H-pyrazole-3-carboxamide] | – | 66 | – | 28 |
| Cc1cc(C(N)=O)nn1-c1ccc(Cc2ccc(-c3ccccc3)cc2)cc1 [Example 3-8, 1-(4-([1,1′-biphenyl]-4-ylmethyl)phenyl)-5-methyl-1H-pyrazole-3-carboxamide] | – | 960 | – | 383 |
| Cc1nnc(-c2ccc(-c3ccc(Cc4ccc(-n5nc(C(N)=O)cc5C)cc4)cc3)cc2)o1 [Example 3-9, 5-methyl-1-(4-((4′-(5-methyl-1,3,4-oxadiazol-2-yl)-[1,1′-biphenyl]-4-yl)methyl)phenyl)-1H-pyrazole-3-carboxamide] | – | 63 | – | 29 |
| Cc1cc(C(N)=O)nn1-c1ccc(Cc2ccc(-c3cccnc3)cc2)cc1 [Example 3-10, 5-methyl-1-(4-(4-(pyridin-3-yl)benzyl)phenyl)-1H-pyrazole-3-carboxamide] | – | 497 | – | 110 |
| Cc1cc(C(N)=O)nn1-c1ccc(Cc2ccc(C3=CCN(C(=O)CN(C)C)CC3)cc2)cc1 [Example 3-11, 1-(4-(4-(1-(dimethylglycyl)-1,2,3,6-tetrahydropyridin-4-yl)benzyl)phenyl)-5-methyl-1H-pyrazole-3-carboxamide] | – | 504 | – | 132 |
| Cc1cc(C(N)=O)nn1-c1ccc(Cc2ccc(-c3ccc(CN4CCN(C)CC4)cc3)cc2)cc1 [Example 3-12, 5-methyl-1-(4-((4′-((4-methylpiperazin-1-yl)methyl)-[1,1′-biphenyl]-4-yl)methyl)phenyl)-1H-pyrazole-3-carboxamide] | – | 122 | – | 36 |
| Cc1cc(C(N)=O)nn1-c1ccc(Cc2ccc(-c3ccc4c(c3)CN(C)C4)cc2)cc1 [Example 3-13, 5-methyl-1-(4-(4-(2-methylisoindolin-5-yl)benzyl)phenyl)-1H-pyrazole-3-carboxamide] | – | 167 | – | 57 |
| Cc1cc(C(N)=O)nn1-c1ccc(Cc2ccc(-c3ccc4c(c3)CCNC4)cc2)cc1 [Example 3-14, 5-methyl-1-(4-(4-(1,2,3,4-tetrahydroisoquinolin-6-yl)benzyl)phenyl)-1H-pyrazole-3-carboxamide] | – | 161 | – | 53 |
| Cc1cc(C(N)=O)nn1-c1ccc(Cc2ccc(C3=CCN(C)CC3)cc2)cc1 [Example 3-15, 5-methyl-1-(4-(4-(1-methyl-1,2,3,6-tetrahydropyridin-4-yl)benzyl)phenyl)-1H-pyrazole-3-carboxamide] | – | 83 | – | 31 |
| Cc1cc(C(N)=O)nn1-c1ccc(Cc2ccc(C3CCN(C)CC3)cc2)cc1 [Example 4, 5-methyl-1-(4-(4-(1-methylpiperidin-4-yl)benzyl)phenyl)-1H-pyrazole-3-carboxamide] | – | 1220 | – | 325 |
| Cc1cc(C(N)=O)nn1-c1ccc(Cc2ccc(-c3ccc(CN(C)C)nc3)cc2)cc1 [Example 5-3, 1-(4-(4-(6-((dimethylamino)methyl)pyridin-3-yl)benzyl)phenyl)-5-methyl-1H-pyrazole-3-carboxamide] | – | 425 | – | 136 |
| Cc1cc(C(N)=O)nn1-c1ccc(Cc2ccc(-c3ccnc(CN(C)C)c3)cc2)cc1 [Example 5-4, 1-(4-(4-(2-((dimethylamino)methyl)pyridin-4-yl)benzyl)phenyl)-5-methyl-1H-pyrazole-3-carboxamide] | – | 789 | – | 160 |
| Cc1cc(C(N)=O)nn1-c1ccc(Cc2ccc(-c3ccc(CN4CCCC4)nc3)cc2)cc1 [Example 5-5, 5-methyl-1-(4-(4-(6-(pyrrolidin-1-ylmethyl)pyridin-3-yl)benzyl)phenyl)-1H-pyrazole-3-carboxamide] | – | 426 | – | 152 |
| Cc1cc(C(N)=O)nn1-c1ccc(Cc2ccc(-c3cncc(CN(C)C)c3)cc2)cc1 [Example 5-6, 1-(4-(4-(5-((dimethylamino)methyl)pyridin-3-yl)benzyl)phenyl)-5-methyl-1H-pyrazole-3-carboxamide] | – | 1040 | – | 312 |
| Cc1cc(C(N)=O)nn1-c1ccc(Cc2ccc(C3=CCCN(C)CC3)cc2)cc1 [Example 5-7, 5-methyl-1-(4-(4-(1-methyl-2,3,6,7-tetrahydro-1H-azepin-4-yl)benzyl)phenyl)-1H-pyrazole-3-carboxamide] | – | 1370 | – | 412 |
| Cc1nc(C(N)=O)nn1-c1ccc(Cc2ccc(-c3ccc(C(C)(C)NCC(C)(C)O)cc3)cc2)cc1 [Example 64, 1-(4-((4′-(2-((2-hydroxy-2-methylpropyl)amino)propan-2-yl)-[1,1′-biphenyl]-4-yl)methyl)phenyl)-5-methyl-1H-1,2,4-triazole-3-carboxamide] | – | – | – | 62 |
